Results published in ChEMBL document CHEMBL1212747, “In vitro activity of thimerosal against ocular pathogenic fungi” (2010).
Values after ≈ are worked out from the molar mass of the structure shown.

Tests used:
Format in all cases: functional
Aspergillus wentii = assay: Antifungal activity against Aspergillus wentii clinical isolates after 48 hrs by broth microdilution method
Aspergillus niger = assay: Antifungal activity against Aspergillus niger clinical isolates after 48 hrs by broth microdilution method
Fusarium oxysporum = assay: Antifungal activity against Fusarium oxysporum clinical isolates after 48 hrs by broth microdilution method
Aspergillus versicolor = assay: Antifungal activity against Aspergillus versicolor species complex clinical isolates after 48 hrs by broth microdilution method
Fusarium sp. = assay: Antifungal activity against Fusarium sp. clinical isolates after 48 hrs by broth microdilution method
Fusarium verticillioides = assay: Antifungal activity against Fusarium moniliforme species complex clinical isolates after 48 hrs by broth microdilution method
Alternaria alternata = assay: Antifungal activity against Alternaria alternata clinical isolates after 48 hrs by broth microdilution method
Fusarium solani = assay: Antifungal activity against Fusarium solani species complex clinical isolates after 48 hrs by broth microdilution method
Fusarium avenaceum = assay: Antifungal activity against Fusarium avenaceum species complex clinical isolates after 48 hrs by broth microdilution method
Aspergillus candidus = assay: Antifungal activity against Aspergillus candidus clinical isolates after 48 hrs by broth microdilution method
Aspergillus nidulans = assay: Antifungal activity against Aspergillus nidulans clinical isolates after 48 hrs by broth microdilution method
[1] = Antifungal activity against Fusarium poae clinical isolates after 48 hrs by broth microdilution method
Aspergillus ochraceus = assay: Antifungal activity against Aspergillus ochraceus clinical isolates after 48 hrs by broth microdilution method
Aspergillus fumigatus = assay: Antifungal activity against Aspergillus fumigatus species complex clinical isolates after 48 hrs by broth microdilution method
[2] = Antifungal activity against Fusarium lateritium clinical isolates after 48 hrs by broth microdilution method
Aspergillus flavus = assay: Antifungal activity against Aspergillus flavus species complex clinical isolates after 48 hrs by broth microdilution method
Aspergillus oryzae = assay: Antifungal activity against Aspergillus oryzae species complex clinical isolates after 48 hrs by broth microdilution method
Aspergillus sp. = assay: Antifungal activity against Aspergillus sp. clinical isolates after 48 hrs by broth microdilution method
[3] = Fusarium sp., 48 h, read-out: MIC90

## C[C@@H]1[C@H](O)[C@@H](C)/C=C/C=C/C=C/C=C/C=C/C=C/C=C/[C@H](O[C@@H]2O[C@H](C)[C@@H](O)[C@H](N)[C@@H]2O)C[C@@H]2O[C@](O)(C[C@@H](O)C[C@@H](O)[C@H](O)CC[C@@H](O)C[C@@H](O)CC(=O)O[C@H]1C)C[C@H](O)[C@H]2C(=O)O [AMPHOTERICIN B]
Aspergillus wentii
  MIC: 1 µg/mL (≈ 1.08 µM)
  MIC50: 1 µg/mL (≈ 1.08 µM)
  MIC90: 2 µg/mL (≈ 2.16 µM)
Aspergillus niger
  MIC: 1 µg/mL (≈ 1.08 µM)
  MIC50: 1 µg/mL (≈ 1.08 µM)
  MIC90: 2 µg/mL (≈ 2.16 µM)
Fusarium oxysporum
  MIC: 1 µg/mL (≈ 1.08 µM)
  MIC50: 1 µg/mL (≈ 1.08 µM)
  MIC90: 2 µg/mL (≈ 2.16 µM)
Aspergillus versicolor
  MIC: 1 µg/mL (≈ 1.08 µM)
  MIC50: 1 µg/mL (≈ 1.08 µM)
  MIC90: 2 µg/mL (≈ 2.16 µM)
Fusarium sp.
  MIC90: 2 µg/mL (≈ 2.16 µM)
Fusarium sp.; Fusarium sp., 48 h
  MIC: 1 µg/mL (≈ 1.08 µM)
  MIC50: 1 µg/mL (≈ 1.08 µM)
Fusarium sp.; [3]
  MIC90: 2 µg/mL (≈ 2.16 µM)
Fusarium verticillioides
  MIC: 2 µg/mL (≈ 2.16 µM)
  MIC50: 2 µg/mL (≈ 2.16 µM)
  MIC90: 2 µg/mL (≈ 2.16 µM)
Alternaria alternata
  MIC: 0.125 µg/mL (≈ 0.135 µM)
  MIC50: 0.125 µg/mL (≈ 0.135 µM)
  MIC90: 0.125 µg/mL (≈ 0.135 µM)
Fusarium solani
  MIC: 1 µg/mL (≈ 1.08 µM)
  MIC50: 1 µg/mL (≈ 1.08 µM)
  MIC90: 2 µg/mL (≈ 2.16 µM)
Fusarium avenaceum
  MIC: 2 µg/mL (≈ 2.16 µM)
  MIC50: 2 µg/mL (≈ 2.16 µM)
  MIC90: 4 µg/mL (≈ 4.33 µM)
Aspergillus candidus
  MIC: 1 µg/mL (≈ 1.08 µM)
  MIC50: 1 µg/mL (≈ 1.08 µM)
  MIC90: 2 µg/mL (≈ 2.16 µM)
Aspergillus nidulans
  MIC: 1 µg/mL (≈ 1.08 µM)
  MIC50: 1 µg/mL (≈ 1.08 µM)
  MIC90: 2 µg/mL (≈ 2.16 µM)
[1]
  MIC50: 1 µg/mL (≈ 1.08 µM)
  MIC90: 2 µg/mL (≈ 2.16 µM)
Aspergillus ochraceus
  MIC: 1 µg/mL (≈ 1.08 µM)
  MIC50: 1 µg/mL (≈ 1.08 µM)
  MIC90: 2 µg/mL (≈ 2.16 µM)
Aspergillus fumigatus
  MIC: 1 µg/mL (≈ 1.08 µM)
  MIC50: 1 µg/mL (≈ 1.08 µM)
  MIC90: 2 µg/mL (≈ 2.16 µM)
[2]
  MIC50: 1 µg/mL (≈ 1.08 µM)
  MIC90: 2 µg/mL (≈ 2.16 µM)
Aspergillus flavus
  MIC: 2 µg/mL (≈ 2.16 µM)
  MIC50: 2 µg/mL (≈ 2.16 µM)
  MIC90: 2 µg/mL (≈ 2.16 µM)
Aspergillus oryzae
  MIC: 1 µg/mL (≈ 1.08 µM)
  MIC50: 1 µg/mL (≈ 1.08 µM)
  MIC90: 2 µg/mL (≈ 2.16 µM)
Aspergillus sp.
  MIC: 1 µg/mL (≈ 1.08 µM)
  MIC50: 1 µg/mL (≈ 1.08 µM)
  MIC90: 2 µg/mL (≈ 2.16 µM)

## CC[C@H](C)C[C@H](C)CCCCCCCCC(=O)N[C@H]1C[C@@H](O)[C@@H](NCCN)NC(=O)[C@@H]2[C@@H](O)CCN2C(=O)[C@H]([C@H](O)CCN)NC(=O)[C@H]([C@H](O)[C@@H](O)c2ccc(O)cc2)NC(=O)[C@@H]2C[C@@H](O)CN2C(=O)[C@H]([C@@H](C)O)NC1=O [CASPOFUNGIN]
Fusarium sp.; [3]
  MIC90: > 16 µg/mL

## OC(Cn1cncn1)(Cn1cncn1)c1ccc(F)cc1F [FLUCONAZOLE]
Fusarium sp.; [3]
  MIC90: > 256 µg/mL

## Nc1nc(=O)[nH]cc1F [FLUCYTOSINE]
Fusarium sp.; [3]
  MIC90: > 64 µg/mL

## CCC(C)n1ncn(-c2ccc(N3CCN(c4ccc(OCC5COC(Cn6cncn6)(c6ccc(Cl)cc6Cl)O5)cc4)CC3)cc2)c1=O (stereo not given) [ITRACONAZOLE]
Fusarium sp.; [3]
  MIC90: > 16 µg/mL

## CC(=O)N1CCN(c2ccc(OCC3COC(Cn4ccnc4)(c4ccc(Cl)cc4Cl)O3)cc2)CC1 (stereo not given) [KETOCONAZOLE]
Fusarium sp.; [3]
  MIC90: > 16 µg/mL

## C[C@@H]1C/C=C/C=C/C=C/C=C/[C@H](O[C@@H]2O[C@H](C)[C@@H](O)[C@H](N)[C@@H]2O)C[C@@H]2O[C@](O)(C[C@@H](O)C[C@H]3O[C@@H]3/C=C/C(=O)O1)C[C@H](O)[C@H]2C(=O)O [NATAMYCIN]
Aspergillus wentii
  MIC: 4 µg/mL (≈ 6.01 µM)
  MIC50: 4 µg/mL (≈ 6.01 µM)
  MIC90: 32 µg/mL (≈ 48.1 µM)
Aspergillus niger
  MIC: 4 µg/mL (≈ 6.01 µM)
  MIC50: 4 µg/mL (≈ 6.01 µM)
  MIC90: 32 µg/mL (≈ 48.1 µM)
Fusarium oxysporum
  MIC: 4 µg/mL (≈ 6.01 µM)
  MIC50: 4 µg/mL (≈ 6.01 µM)
  MIC90: 8 µg/mL (≈ 12 µM)
Aspergillus versicolor
  MIC: 8 µg/mL (≈ 12 µM)
  MIC50: 8 µg/mL (≈ 12 µM)
  MIC90: 32 µg/mL (≈ 48.1 µM)
Fusarium sp.
  MIC90: 16 µg/mL (≈ 24 µM)
Fusarium sp.; Fusarium sp., 48 h
  MIC: 4 µg/mL (≈ 6.01 µM)
  MIC50: 4 µg/mL (≈ 6.01 µM)
Fusarium sp.; [3]
  MIC90: 8 µg/mL (≈ 12 µM)
Fusarium verticillioides
  MIC: 4 µg/mL (≈ 6.01 µM)
  MIC50: 4 µg/mL (≈ 6.01 µM)
  MIC90: 8 µg/mL (≈ 12 µM)
Alternaria alternata
  MIC: 4 µg/mL (≈ 6.01 µM)
  MIC50: 4 µg/mL (≈ 6.01 µM)
  MIC90: 4 µg/mL (≈ 6.01 µM)
Fusarium solani
  MIC: 4 µg/mL (≈ 6.01 µM)
  MIC50: 4 µg/mL (≈ 6.01 µM)
  MIC90: 8 µg/mL (≈ 12 µM)
Fusarium avenaceum
  MIC: 8 µg/mL (≈ 12 µM)
  MIC50: 8 µg/mL (≈ 12 µM)
  MIC90: 8 µg/mL (≈ 12 µM)
Aspergillus candidus
  MIC: 4 µg/mL (≈ 6.01 µM)
  MIC50: 4 µg/mL (≈ 6.01 µM)
  MIC90: 32 µg/mL (≈ 48.1 µM)
Aspergillus nidulans
  MIC: 4 µg/mL (≈ 6.01 µM)
  MIC50: 4 µg/mL (≈ 6.01 µM)
  MIC90: 32 µg/mL (≈ 48.1 µM)
[1]
  MIC50: 4 µg/mL (≈ 6.01 µM)
  MIC90: 8 µg/mL (≈ 12 µM)
Aspergillus ochraceus
  MIC: 4 µg/mL (≈ 6.01 µM)
  MIC50: 4 µg/mL (≈ 6.01 µM)
  MIC90: 32 µg/mL (≈ 48.1 µM)
Aspergillus fumigatus
  MIC: 4 µg/mL (≈ 6.01 µM)
  MIC50: 4 µg/mL (≈ 6.01 µM)
  MIC90: 4 µg/mL (≈ 6.01 µM)
[2]
  MIC50: 4 µg/mL (≈ 6.01 µM)
  MIC90: 8 µg/mL (≈ 12 µM)
Aspergillus flavus
  MIC: 32 µg/mL (≈ 48.1 µM)
  MIC50: 32 µg/mL (≈ 48.1 µM)
  MIC90: 32 µg/mL (≈ 48.1 µM)
Aspergillus oryzae
  MIC: 32 µg/mL (≈ 48.1 µM)
  MIC50: 32 µg/mL (≈ 48.1 µM)
  MIC90: 32 µg/mL (≈ 48.1 µM)
Aspergillus sp.
  MIC: 32 µg/mL (≈ 48.1 µM)
  MIC50: 32 µg/mL (≈ 48.1 µM)
  MIC90: 32 µg/mL (≈ 48.1 µM)

## CC[C@@H]([C@H](C)O)n1ncn(-c2ccc(N3CCN(c4ccc(OC[C@@H]5CO[C@@](Cn6cncn6)(c6ccc(F)cc6F)C5)cc4)CC3)cc2)c1=O [POSACONAZOLE]
Fusarium sp.; [3]
  MIC90: > 8 µg/mL

## CN(C/C=C/C#CC(C)(C)C)Cc1cccc2ccccc12 [TERBINAFINE]
Fusarium sp.; [3]
  MIC90: 8 µg/mL (≈ 27.5 µM)

## C[C@@H](c1ncncc1F)[C@](O)(Cn1cncn1)c1ccc(F)cc1F [VORICONAZOLE]
Fusarium sp.; [3]
  MIC90: 2 µg/mL (≈ 5.73 µM)

## THIMEROSAL
Aspergillus wentii
  MIC50: 0.0156 µg/mL
  MIC90: 0.0313 µg/mL
Aspergillus niger
  MIC50: 0.0156 µg/mL
  MIC90: 0.0313 µg/mL
Fusarium oxysporum
  MIC50: 0.0156 µg/mL
  MIC90: 0.0313 µg/mL
Aspergillus versicolor
  MIC50: 0.0156 µg/mL
  MIC90: 0.0625 µg/mL
Fusarium sp.
  MIC50: 0.0156 µg/mL
  MIC90: 0.0313 µg/mL
Fusarium verticillioides
  MIC50: 0.0156 µg/mL
  MIC90: 0.0313 µg/mL
Alternaria alternata
  MIC50: 0.0156 µg/mL
  MIC90: 0.0313 µg/mL
Fusarium solani
  MIC50: 0.0156 µg/mL
  MIC90: 0.0313 µg/mL
Fusarium avenaceum
  MIC50: 0.0156 µg/mL
  MIC90: 0.0313 µg/mL
Aspergillus candidus
  MIC50: 0.0156 µg/mL
  MIC90: 0.0313 µg/mL
Aspergillus nidulans
  MIC50: 0.0156 µg/mL
  MIC90: 0.0313 µg/mL
[1]
  MIC50: 0.0156 µg/mL
  MIC90: 0.0313 µg/mL
Aspergillus ochraceus
  MIC50: 0.0156 µg/mL
  MIC90: 0.0313 µg/mL
Aspergillus fumigatus
  MIC50: 0.0313 µg/mL
  MIC90: 0.0625 µg/mL
[2]
  MIC50: 0.0156 µg/mL
  MIC90: 0.0313 µg/mL
Aspergillus flavus
  MIC50: 0.0625 µg/mL
  MIC90: 0.0625 µg/mL
Aspergillus oryzae
  MIC50: 0.0625 µg/mL
  MIC90: 0.0625 µg/mL
Aspergillus sp.
  MIC50: 0.0625 µg/mL
  MIC90: 0.0625 µg/mL
